Results reported in the NIST ThermoML archive (doi:10.1016/j.jct.2014.12.020).

Test: wn = mass fraction of the nth substance listed
Conditions: 100 kPa, Liquid; for viscosity: Concentric cylinders viscometry; for mass density: Vibrating tube method

C[C@H](O)C(=O)[O-].C[N+](C)(C)CCO + O
Conditions | mass density [kg/m3] | viscosity [mPa·s]
293.15 K, w2 = 0.004 | 1140.9 | 3661.3
293.15 K, w2 = 0.011 | 1142 | 2703
293.15 K, w2 = 0.02 | 1142.3 | 1543.3
293.15 K, w2 = 0.029 | 1141.9 | 1408.3
293.15 K, w2 = 0.045 | 1140.9 | 888
293.15 K, w2 = 0.066 | 1139.9 | 546.3
293.15 K, w2 = 0.077 | 1139.3 | 421.4
293.15 K, w2 = 0.121 | 1137 | 201.3
293.15 K, w2 = 0.167 | 1135.4 | 119.8
293.15 K, w2 = 0.218 | 1131.4 | 70.5
293.15 K, w2 = 0.24 | 1127.4 | 48
298.15 K, w2 = 0.004 | 1137.8 | 2310.1
298.15 K, w2 = 0.011 | 1138.8 | 1732.1
298.15 K, w2 = 0.02 | 1139 | 1021
298.15 K, w2 = 0.029 | 1138.5 | 936.5
298.15 K, w2 = 0.045 | 1137.5 | 604.3
298.15 K, w2 = 0.066 | 1136.5 | 380.6
298.15 K, w2 = 0.077 | 1136 | 297.1
298.15 K, w2 = 0.121 | 1133.7 | 146.7
298.15 K, w2 = 0.167 | 1132.1 | 89.1
298.15 K, w2 = 0.218 | 1128.1 | 53.6
298.15 K, w2 = 0.24 | 1124.1 | 37.1
303.15 K, w2 = 0.004 | 1134.7 | 1510.1
303.15 K, w2 = 0.011 | 1135.6 | 1150.1
303.15 K, w2 = 0.02 | 1135.7 | 697.5
303.15 K, w2 = 0.029 | 1135.2 | 642.3
303.15 K, w2 = 0.045 | 1134.2 | 423.6
303.15 K, w2 = 0.066 | 1133.3 | 272.7
303.15 K, w2 = 0.077 | 1132.7 | 215.2
303.15 K, w2 = 0.121 | 1130.5 | 109.4
303.15 K, w2 = 0.167 | 1128.9 | 67.8
303.15 K, w2 = 0.218 | 1124.8 | 41.6
303.15 K, w2 = 0.24 | 1120.8 | 29.2
308.15 K, w2 = 0.004 | 1131.7 | 1019.4
308.15 K, w2 = 0.011 | 1132.4 | 787.6
308.15 K, w2 = 0.02 | 1132.4 | 490.6
308.15 K, w2 = 0.029 | 1131.8 | 453.5
308.15 K, w2 = 0.045 | 1130.9 | 305
308.15 K, w2 = 0.066 | 1130.1 | 200.4
308.15 K, w2 = 0.077 | 1129.6 | 159.8
308.15 K, w2 = 0.121 | 1127.3 | 83.5
308.15 K, w2 = 0.167 | 1125.8 | 52.6
308.15 K, w2 = 0.218 | 1121.6 | 32.9
308.15 K, w2 = 0.24 | 1117.6 | 23.4
313.15 K, w2 = 0.004 | 1128.6 | 708.4
313.15 K, w2 = 0.011 | 1129.1 | 554.7
313.15 K, w2 = 0.02 | 1129.2 | 354.1
313.15 K, w2 = 0.029 | 1128.6 | 328.4
313.15 K, w2 = 0.045 | 1127.8 | 225
313.15 K, w2 = 0.066 | 1126.9 | 150.7
313.15 K, w2 = 0.077 | 1126.4 | 121.4
313.15 K, w2 = 0.121 | 1124.2 | 65
313.15 K, w2 = 0.167 | 1122.6 | 41.7
313.15 K, w2 = 0.218 | 1118.5 | 26.4
313.15 K, w2 = 0.24 | 1114.5 | 18.9
318.15 K, w2 = 0.004 | – | 505.4
318.15 K, w2 = 0.011 | – | 400.7
318.15 K, w2 = 0.02 | – | 261.6
318.15 K, w2 = 0.029 | – | 243.5
318.15 K, w2 = 0.045 | – | 169.7
318.15 K, w2 = 0.066 | – | 115.6
318.15 K, w2 = 0.077 | – | 94
318.15 K, w2 = 0.121 | – | 51.5
318.15 K, w2 = 0.167 | – | 33.6
318.15 K, w2 = 0.218 | – | 21.6
318.15 K, w2 = 0.24 | – | 15.8
